Data taken from PubChem BioAssay AID1919009 (Molecular Pharmacology Branch, DTP, NCI, 2023).
pIC50: −log10 of the molar value.

Tested on: K24384-001-R-PDC complex spheroid growth
Test: Anticancer human tumor K24384-001-R-PDC patient-derived pancreatic adenocarcinoma cell line growth inhibition [AhR]
Details: for pIC50: curve of first compound; for viability, T/C: stronger effect = lower value
In short: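 Complex tumor spheroids co-cultured with HUVEC and human MSC stroma; AhR antagonists tested in combination with standard-of-care and investigational agents. Top concentration at or near clinical Cmax (else 10 microM), half-log dilutions; growth expressed as percent test/control.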

[1] = second compound 0.1 µM, first compound 0.0316 µM
[2] = second compound 0.1 µM, first compound 0.1 µM
[3] = second compound 0.1 µM, first compound 0.316 µM
[4] = second compound 0.1 µM, first compound 1 µM
[5] = second compound 0.1 µM, first compound 3.16 µM
[6] = second compound 0.1 µM, first compound 10 µM
[7] = second compound 0.316 µM, first compound 0.0316 µM
[8] = second compound 0.316 µM, first compound 0.1 µM
[9] = second compound 0.316 µM, first compound 0.316 µM
[10] = second compound 0.316 µM, first compound 1 µM
[11] = second compound 0.316 µM, first compound 3.16 µM
[12] = second compound 0.316 µM, first compound 10 µM
[13] = second compound 1 µM, first compound 0.0316 µM
[14] = second compound 1 µM, first compound 0.1 µM
[15] = second compound 1 µM, first compound 0.316 µM
[16] = second compound 1 µM, first compound 1 µM
[17] = second compound 1 µM, first compound 3.16 µM
[18] = second compound 1 µM, first compound 10 µM
[19] = second compound 3.16 µM, first compound 0.0316 µM
[20] = second compound 3.16 µM, first compound 0.1 µM
[21] = second compound 3.16 µM, first compound 0.316 µM
[22] = second compound 3.16 µM, first compound 1 µM
[23] = second compound 3.16 µM, first compound 3.16 µM
[24] = second compound 3.16 µM, first compound 10 µM
[25] = second compound 10 µM, first compound 0.0316 µM
[26] = second compound 10 µM, first compound 0.1 µM
[27] = second compound 10 µM, first compound 0.316 µM
[28] = second compound 10 µM, first compound 1 µM
[29] = second compound 10 µM, first compound 3.16 µM
[30] = second compound 10 µM, first compound 10 µM
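Wherever viability, T/C is given: percent of DMSO vehicle-treated spheroid viability set as 100%.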

Structure (SMILES) | pIC50 (second compound 0.1 µM) | pIC50 (second compound 0.316 µM) | pIC50 (second compound 1 µM) | pIC50 (second compound 3.16 µM) | pIC50 (second compound 10 µM) | viability, T/C [1] | viability, T/C [2] | viability, T/C [3] | viability, T/C [4] | viability, T/C [5] | viability, T/C [6] | viability, T/C [7] | viability, T/C [8] | viability, T/C [9] | viability, T/C [13] | viability, T/C [14] | viability, T/C [19] | viability, T/C [20] | viability, T/C [25] | viability, T/C [26] | further results
CC1(C)CCC(CN2CCN(c3ccc(C(=O)NS(=O)(=O)c4ccc(NCC5CCOCC5)c([N+](=O)[O-])c4)c(Oc4cnc5[nH]ccc5c4)c3)CC2)=C(c2ccc(Cl)cc2)C1 + Cc1cncc(-c2nc(NCCc3c[nH]c4ccccc34)c3ncn(C(C)C)c3n2)c1 | 5.21 | 5.24 | 5.14 | 5.12 | > 7.50 | 137% | 128% | 129% | 86.7% | 101% | 22% | 134% | 140% | 126% | 117% | 157% | 116% | 148% | 20.5% | 21% | viability, T/C [10]: 95.5%; viability, T/C [11]: 92.7%; viability, T/C [12]: 18.6%; viability, T/C [15]: 137%; viability, T/C [16]: 122%; viability, T/C [17]: 119%; viability, T/C [18]: 23.1%; viability, T/C [21]: 138%; viability, T/C [22]: 119%; viability, T/C [23]: 124%; viability, T/C [24]: 27.5%; viability, T/C [27]: 16.6%; viability, T/C [28]: 19.1%; viability, T/C [29]: 19.9%; viability, T/C [30]: 25%
Cn1ncnc1C1c2n[nH]c(=O)c3cc(F)cc(c23)NC1c1ccc(F)cc1 (stereo not given) + Cc1cncc(-c2nc(NCCc3c[nH]c4ccccc34)c3ncn(C(C)C)c3n2)c1 | < 7.00 | < 7.00 | < 7.00 | < 7.00 | > 9.50 | 94.7% | 76.3% | – | – | – | – | 99.4% | 71.8% | – | 74.3% | 66.8% | 69.8% | 71.5% | 12.1% | 14.5% | viability, T/C (second compound 0.1 µM, first compound 0.000316 µM): 94.1%; viability, T/C (second compound 0.1 µM, first compound 0.001 µM): 93.8%; viability, T/C (second compound 0.1 µM, first compound 0.00316 µM): 99.8%; viability, T/C (second compound 0.1 µM, first compound 0.01 µM): 107%; viability, T/C (second compound 0.316 µM, first compound 0.000316 µM): 98.1%; viability, T/C (second compound 0.316 µM, first compound 0.001 µM): 108%; viability, T/C (second compound 0.316 µM, first compound 0.00316 µM): 104%; viability, T/C (second compound 0.316 µM, first compound 0.01 µM): 92.2%; viability, T/C (second compound 1 µM, first compound 0.000316 µM): 104%; viability, T/C (second compound 1 µM, first compound 0.001 µM): 110%; viability, T/C (second compound 1 µM, first compound 0.00316 µM): 105%; viability, T/C (second compound 1 µM, first compound 0.01 µM): 101%; viability, T/C (second compound 3.16 µM, first compound 0.000316 µM): 101%; viability, T/C (second compound 3.16 µM, first compound 0.001 µM): 86.7%; viability, T/C (second compound 3.16 µM, first compound 0.00316 µM): 104%; viability, T/C (second compound 3.16 µM, first compound 0.01 µM): 64.8%; viability, T/C (second compound 10 µM, first compound 0.000316 µM): 15.3%; viability, T/C (second compound 10 µM, first compound 0.001 µM): 12%; viability, T/C (second compound 10 µM, first compound 0.00316 µM): 14.2%; viability, T/C (second compound 10 µM, first compound 0.01 µM): 11.5%
NS(=O)(=O)OCC1CC(n2ccc3c(NC4CCc5ccccc54)ncnc32)CC1O (stereo not given) + Cc1cncc(-c2nc(NCCc3c[nH]c4ccccc34)c3ncn(C(C)C)c3n2)c1 | 5.63 | 5.63 | 5.63 | 5.82 | > 7.50 | 130% | 150% | 67.3% | 107% | 29.7% | 29.1% | 141% | 161% | 56.1% | 167% | 154% | 132% | 153% | 27.1% | 15.2% | viability, T/C [10]: 124%; viability, T/C [11]: 24%; viability, T/C [12]: 23.6%; viability, T/C [15]: 62%; viability, T/C [16]: 84.6%; viability, T/C [17]: 27.9%; viability, T/C [18]: 27%; viability, T/C [21]: 59.8%; viability, T/C [22]: 86.4%; viability, T/C [23]: 20.4%; viability, T/C [24]: 20.6%; viability, T/C [27]: 10.5%; viability, T/C [28]: 11.1%; viability, T/C [29]: 5.02%; viability, T/C [30]: 5.87%
